Numbers after ± are expanded uncertainties.
Test: xn = mol fraction of the nth substance listed
Settings: 101 kPa, Liquid; for viscosity: Capillary tube (Ostwald / Ubbelohde) method; for mass density: Vibrating tube method

CCCCCCCC [octane] + CCCCO
Settings	mass density [kg/m3]	viscosity [mPa·s]
293.15 K, x1 = 0.0967	792 ± 0.68	2.243 ± 0.029
293.15 K, x1 = 0.1999	775.92 ± 0.6	1.722 ± 0.021
293.15 K, x1 = 0.3022	761.86 ± 0.53	1.363 ± 0.017
293.15 K, x1 = 0.4064	749.45 ± 0.47	1.078 ± 0.014
293.15 K, x1 = 0.4995	739.67 ± 0.42	0.903 ± 0.012
293.15 K, x1 = 0.6004	730.23 ± 0.38	0.766 ± 0.01
293.15 K, x1 = 0.7002	721.95 ± 0.35	0.672 ± 0.01
293.15 K, x1 = 0.7999	714.61 ± 0.32	0.603 ± 0.009
293.15 K, x1 = 0.8991	708.11 ± 0.28	0.571 ± 0.009
293.15 K, x1 = 1	702.54 ± 0.15	0.545 ± 0.009
298.15 K, x1 = 0.0967	788.1 ± 0.69	1.983 ± 0.025
298.15 K, x1 = 0.1999	771.93 ± 0.6	1.537 ± 0.019
298.15 K, x1 = 0.3022	757.83 ± 0.53	1.223 ± 0.015
298.15 K, x1 = 0.4064	745.37 ± 0.47	0.974 ± 0.013
298.15 K, x1 = 0.4995	735.56 ± 0.42	0.826 ± 0.011
298.15 K, x1 = 0.6004	726.12 ± 0.38	0.709 ± 0.01
298.15 K, x1 = 0.7002	717.8 ± 0.35	0.626 ± 0.009
298.15 K, x1 = 0.7999	710.5 ± 0.32	0.565 ± 0.009
298.15 K, x1 = 0.8991	704 ± 0.28	0.537 ± 0.009
298.15 K, x1 = 1	698.49 ± 0.15	0.513 ± 0.009
303.15 K, x1 = 0.0967	784.17 ± 0.69	1.762 ± 0.022
303.15 K, x1 = 0.1999	767.92 ± 0.61	1.375 ± 0.017
303.15 K, x1 = 0.3022	753.77 ± 0.53	1.102 ± 0.014
303.15 K, x1 = 0.4064	741.27 ± 0.47	0.885 ± 0.012
303.15 K, x1 = 0.4995	731.43 ± 0.42	0.758 ± 0.01
303.15 K, x1 = 0.6004	721.97 ± 0.38	0.655 ± 0.01
303.15 K, x1 = 0.7002	713.65 ± 0.35	0.584 ± 0.009
303.15 K, x1 = 0.7999	706.35 ± 0.32	0.529 ± 0.009
303.15 K, x1 = 0.8991	699.87 ± 0.28	0.503 ± 0.009
303.15 K, x1 = 1	694.44 ± 0.16	0.485 ± 0.009
308.15 K, x1 = 0.0967	780.22 ± 0.69	1.577 ± 0.02
308.15 K, x1 = 0.1999	763.9 ± 0.61	1.232 ± 0.015
308.15 K, x1 = 0.3022	749.68 ± 0.54	0.996 ± 0.013
308.15 K, x1 = 0.4064	737.13 ± 0.48	0.809 ± 0.011
308.15 K, x1 = 0.4995	727.27 ± 0.42	0.698 ± 0.01
308.15 K, x1 = 0.6004	717.79 ± 0.38	0.609 ± 0.009
308.15 K, x1 = 0.7002	709.47 ± 0.35	0.546 ± 0.009
308.15 K, x1 = 0.7999	702.18 ± 0.32	0.497 ± 0.009
308.15 K, x1 = 0.8991	695.72 ± 0.28	0.473 ± 0.009
308.15 K, x1 = 1	690.37 ± 0.16	0.459 ± 0.009
313.15 K, x1 = 0.0967	776.24 ± 0.7	1.4 ± 0.018
313.15 K, x1 = 0.1999	759.83 ± 0.61	1.11 ± 0.014
313.15 K, x1 = 0.3022	745.56 ± 0.54	0.904 ± 0.012
313.15 K, x1 = 0.4064	732.96 ± 0.48	0.74 ± 0.011
313.15 K, x1 = 0.4995	723.07 ± 0.42	0.644 ± 0.01
313.15 K, x1 = 0.6004	713.59 ± 0.38	0.566 ± 0.009
313.15 K, x1 = 0.7002	705.27 ± 0.35	0.511 ± 0.009
313.15 K, x1 = 0.7999	697.97 ± 0.32	0.467 ± 0.009
313.15 K, x1 = 0.8991	691.54 ± 0.28	0.447 ± 0.009
313.15 K, x1 = 1	686.29 ± 0.16	0.433 ± 0.009
318.15 K, x1 = 0.0967	772.22 ± 0.7	1.258 ± 0.016
318.15 K, x1 = 0.1999	755.73 ± 0.62	1 ± 0.013
318.15 K, x1 = 0.3022	741.39 ± 0.54	0.821 ± 0.011
318.15 K, x1 = 0.4064	728.75 ± 0.48	0.679 ± 0.01
318.15 K, x1 = 0.4995	718.84 ± 0.43	0.595 ± 0.009
318.15 K, x1 = 0.6004	709.35 ± 0.39	0.527 ± 0.009
318.15 K, x1 = 0.7002	701.03 ± 0.35	0.479 ± 0.009
318.15 K, x1 = 0.7999	693.72 ± 0.32	0.44 ± 0.009
318.15 K, x1 = 0.8991	687.33 ± 0.28	0.42 ± 0.009
318.15 K, x1 = 1	682.19 ± 0.16	0.412 ± 0.008
323.15 K, x1 = 0.0967	768.16 ± 0.7	1.134 ± 0.014
323.15 K, x1 = 0.1999	751.58 ± 0.62	0.907 ± 0.012
323.15 K, x1 = 0.3022	737.18 ± 0.54	0.751 ± 0.011
323.15 K, x1 = 0.4064	724.5 ± 0.48	0.625 ± 0.01
323.15 K, x1 = 0.4995	714.57 ± 0.43	0.552 ± 0.009
323.15 K, x1 = 0.6004	705.07 ± 0.39	0.493 ± 0.009
323.15 K, x1 = 0.7002	696.75 ± 0.35	0.45 ± 0.009
323.15 K, x1 = 0.7999	689.48 ± 0.32	0.415 ± 0.009
323.15 K, x1 = 0.8991	683.1 ± 0.28	0.397 ± 0.008
323.15 K, x1 = 1	678.08 ± 0.16	0.392 ± 0.008

CCCCCCCC [octane] + CCCO
Settings	mass density [kg/m3]	viscosity [mPa·s]
293.15 K, x1 = 0.0997	782.97 ± 0.76	1.692 ± 0.021
293.15 K, x1 = 0.1999	766.37 ± 0.62	1.356 ± 0.016
293.15 K, x1 = 0.3	752.87 ± 0.51	1.092 ± 0.013
293.15 K, x1 = 0.3997	741.8 ± 0.43	0.934 ± 0.011
293.15 K, x1 = 0.4993	732.43 ± 0.38	0.798 ± 0.01
293.15 K, x1 = 0.602	724.19 ± 0.33	0.703 ± 0.01
293.15 K, x1 = 0.6991	717.48 ± 0.3	0.632 ± 0.009
293.15 K, x1 = 0.7994	711.55 ± 0.26	0.587 ± 0.009
293.15 K, x1 = 0.9	706.48 ± 0.23	0.556 ± 0.009
293.15 K, x1 = 1	702.54 ± 0.15	0.545 ± 0.009
298.15 K, x1 = 0.0997	778.9 ± 0.76	1.508 ± 0.019
298.15 K, x1 = 0.1999	762.25 ± 0.62	1.216 ± 0.015
298.15 K, x1 = 0.3	748.72 ± 0.51	0.991 ± 0.012
298.15 K, x1 = 0.3997	737.62 ± 0.43	0.854 ± 0.011
298.15 K, x1 = 0.4993	728.24 ± 0.38	0.734 ± 0.01
298.15 K, x1 = 0.602	719.99 ± 0.33	0.65 ± 0.009
298.15 K, x1 = 0.6991	713.3 ± 0.3	0.589 ± 0.009
298.15 K, x1 = 0.7994	707.39 ± 0.26	0.55 ± 0.009
298.15 K, x1 = 0.9	702.35 ± 0.23	0.523 ± 0.009
298.15 K, x1 = 1	698.49 ± 0.15	0.513 ± 0.009
303.15 K, x1 = 0.0997	774.8 ± 0.77	1.352 ± 0.017
303.15 K, x1 = 0.1999	758.1 ± 0.62	1.097 ± 0.014
303.15 K, x1 = 0.3	744.53 ± 0.51	0.899 ± 0.012
303.15 K, x1 = 0.3997	733.4 ± 0.44	0.777 ± 0.01
303.15 K, x1 = 0.4993	724.01 ± 0.38	0.675 ± 0.01
303.15 K, x1 = 0.602	715.77 ± 0.33	0.603 ± 0.009
303.15 K, x1 = 0.6991	709.09 ± 0.3	0.55 ± 0.009
303.15 K, x1 = 0.7994	703.2 ± 0.26	0.515 ± 0.009
303.15 K, x1 = 0.9	698.19 ± 0.23	0.491 ± 0.009
303.15 K, x1 = 1	694.44 ± 0.16	0.485 ± 0.009
308.15 K, x1 = 0.0997	770.67 ± 0.77	1.211 ± 0.015
308.15 K, x1 = 0.1999	753.91 ± 0.62	0.992 ± 0.013
308.15 K, x1 = 0.3	740.3 ± 0.52	0.817 ± 0.011
308.15 K, x1 = 0.3997	729.15 ± 0.44	0.712 ± 0.01
308.15 K, x1 = 0.4993	719.75 ± 0.38	0.623 ± 0.009
308.15 K, x1 = 0.602	711.51 ± 0.33	0.56 ± 0.009
308.15 K, x1 = 0.6991	704.85 ± 0.3	0.514 ± 0.009
308.15 K, x1 = 0.7994	698.98 ± 0.26	0.484 ± 0.009
308.15 K, x1 = 0.9	694.02 ± 0.23	0.463 ± 0.009
308.15 K, x1 = 1	690.37 ± 0.16	0.459 ± 0.009
313.15 K, x1 = 0.0997	766.5 ± 0.77	1.09 ± 0.014
313.15 K, x1 = 0.1999	749.69 ± 0.62	0.898 ± 0.012
313.15 K, x1 = 0.3	736.04 ± 0.52	0.745 ± 0.01
313.15 K, x1 = 0.3997	724.85 ± 0.44	0.653 ± 0.01
313.15 K, x1 = 0.4993	715.44 ± 0.38	0.576 ± 0.009
313.15 K, x1 = 0.602	707.21 ± 0.33	0.52 ± 0.009
313.15 K, x1 = 0.6991	700.57 ± 0.3	0.481 ± 0.009
313.15 K, x1 = 0.7994	694.73 ± 0.26	0.455 ± 0.009
313.15 K, x1 = 0.9	689.81 ± 0.23	0.436 ± 0.009
313.15 K, x1 = 1	686.29 ± 0.16	0.433 ± 0.009
318.15 K, x1 = 0.0997	762.28 ± 0.77	0.984 ± 0.013
318.15 K, x1 = 0.1999	745.41 ± 0.63	0.817 ± 0.011
318.15 K, x1 = 0.3	731.72 ± 0.52	0.68 ± 0.01
318.15 K, x1 = 0.3997	720.51 ± 0.44	0.605 ± 0.009
318.15 K, x1 = 0.4993	711.09 ± 0.38	0.534 ± 0.009
318.15 K, x1 = 0.602	702.87 ± 0.33	0.485 ± 0.009
318.15 K, x1 = 0.6991	696.25 ± 0.3	0.451 ± 0.009
318.15 K, x1 = 0.7994	690.45 ± 0.26	0.427 ± 0.009
318.15 K, x1 = 0.9	685.58 ± 0.23	0.412 ± 0.008
318.15 K, x1 = 1	682.19 ± 0.16	0.412 ± 0.008
323.15 K, x1 = 0.0997	758.02 ± 0.78	0.89 ± 0.012
323.15 K, x1 = 0.1999	741.08 ± 0.63	0.742 ± 0.011
323.15 K, x1 = 0.3	727.35 ± 0.52	0.623 ± 0.01
323.15 K, x1 = 0.3997	716.12 ± 0.44	0.554 ± 0.009
323.15 K, x1 = 0.4993	706.7 ± 0.38	0.496 ± 0.009
323.15 K, x1 = 0.602	698.49 ± 0.33	0.452 ± 0.009
323.15 K, x1 = 0.6991	691.9 ± 0.3	0.423 ± 0.009
323.15 K, x1 = 0.7994	686.13 ± 0.26	0.403 ± 0.008
323.15 K, x1 = 0.9	681.32 ± 0.23	0.389 ± 0.008
323.15 K, x1 = 1	678.08 ± 0.16	0.392 ± 0.008
